The source of these data is US10105357B2, “Indication of antibiotic drugs for preparation of cancer inhibition pharmaceutical composition” (LAUNX BIOMEDICAL CO., LTD., priority 2014, dated 2018).

The term viability denotes a read-out of living cells in per cent, often relative to untreated cells.

Where a name gives a salt, the structure may show the parent alone. Read-outs that look alike come from different tables or passages of the source.

What all share (type): cell-based, human
For experiment [1], the system named is A375 (Amelanotic Melanoma). In words: Cell viability analysis, skin cancer A375. The note with it: Homo sapiens, A-375, 72 h.
Experiment [2] relates to LoVo (Colorectal Adenocarcinoma). In words: Cell viability analysis, colon cancer LoVo. The note with it: Homo sapiens, LoVo, 72 h, read-out: cell viability (survival rate), LoVo, drug 10 μM, 72 hours, WST-1, OD450 nm. A general note: Formazan colour is commonly taken as a measure of viable cells.
The test system of experiment [3] is HL-60 (Acute Promyelocytic Leukemia). In words: Cell viability analysis, leukemia HL-60. The following applies: Homo sapiens, HL-60, 72 h.
For experiment [4], the system named is A549 (Lung Adenocarcinoma). In words: Cell viability analysis, lung cancer A549. The note with it: Homo sapiens, A549, 72 h.
Experiment [5] relates to HepG2 (Hepatocellular Carcinoma). In words: Cell viability analysis, hepatic cancer HepG2. The note with it: Homo sapiens, HepG2, 72 h.
Experiment [6] deals with MKN-45 (Gastric Adenocarcinoma). In words: Cell viability analysis, gastric cancer MKN-45. The following applies: Homo sapiens, MKN-45, 72 h.
In experiment [7] the test system is HI650 (Lung Adenocarcinoma). In words: Cell viability analysis, lung cancer HI650. The following applies: Homo sapiens, NCI-H1650, 72 h.
Experiment [8] concerns TSGH-8301 (Urinary Bladder Carcinoma). In words: Cell viability analysis, bladder cancer TSGH-8301. The note with it: Homo sapiens, 72 h.
In another experiment the test system is cancer cell lines. In words: Cell viability analysis (WST-1) on cancer cell lines. The following applies: drug 10 μM, 72 hours, WST-1; Table 3.
Experiment [9] relates to PC3 (p53−) (Prostate Adenocarcinoma). In words: Cell viability analysis, prostate cancer PC3. The following applies: Homo sapiens, 72 h.
Experiment [10] deals with AGS (Gastric Adenocarcinoma). In words: Cell viability analysis, gastric cancer AGS. The note with it: Homo sapiens, 72 h.
The test system of experiment [11] is MCF7 (Mammary Gland, Adenocarcinoma). In words: Cell viability analysis, breast cancer MCF7. The note with it: Homo sapiens, MCF7, 72 h.
Experiment [12] deals with HeLa (Cervix Adenocarcinoma). In words: Cell viability analysis, cervical cancer HeLa. The note with it: Homo sapiens, HeLa, 72 h.
Setting [13] is: read-out: cell viability (survival rate), A375, drug 10 μM, 72 hours, WST-1, OD450 nm.
The mark [14] stands for this setting: read-out: cell viability (survival rate), HL-60, drug 10 μM, 72 hours, WST-1, OD450 nm.
[15] abbreviates: read-out: cell viability (survival rate), A549, drug 10 μM, 72 hours, WST-1, OD450 nm.
Where [16] appears, read: read-out: cell viability (survival rate), HepG2, drug 10 μM, 72 hours, WST-1, OD450 nm.
Where [17] appears, read: read-out: cell viability (survival rate), MKN-45, drug 10 μM, 72 hours, WST-1, OD450 nm.
[18] abbreviates: read-out: cell viability (survival rate), H1650, drug 10 μM, 72 hours, WST-1, OD450 nm.
The mark [19] stands for this setting: read-out: cell viability (survival rate), TSGH, drug 10 μM, 72 hours, WST-1, OD450 nm.
Where [20] appears, read: read-out: cell viability (survival rate), PC3, drug 10 μM, 72 hours, WST-1, OD450 nm.
Where [21] appears, read: read-out: cell viability (survival rate), AGS, drug 10 μM, 72 hours, WST-1, OD450 nm.
[22] abbreviates: read-out: cell viability (survival rate), MCF7, drug 10 μM, 72 hours, WST-1, OD450 nm.
Setting [23] is: read-out: cell viability (survival rate), HeLa, drug 10 μM, 72 hours, WST-1, OD450 nm.
The mark [24] stands for this setting: drug 10 μM, 72 hours, WST-1, OD450 nm, read-out: cell viability (survival rate), A375.
[25] abbreviates: drug 10 μM, 72 hours, WST-1, OD450 nm, read-out: cell viability (survival rate), HL-60.
Setting [26] is: drug 10 μM, 72 hours, WST-1, OD450 nm, read-out: cell viability (survival rate), A549.
The mark [27] stands for this setting: drug 10 μM, 72 hours, WST-1, OD450 nm, read-out: cell viability (survival rate), HepG2.
Where [28] appears, read: drug 10 μM, 72 hours, WST-1, OD450 nm, read-out: cell viability (survival rate), MKN-45.
The mark [29] stands for this setting: drug 10 μM, 72 hours, WST-1, OD450 nm, read-out: cell viability (survival rate), H1650.
[30] abbreviates: drug 10 μM, 72 hours, WST-1, OD450 nm, read-out: cell viability (survival rate), TSGH.
Where [31] appears, read: drug 10 μM, 72 hours, WST-1, OD450 nm, read-out: cell viability (survival rate), PC3.
The mark [32] stands for this setting: drug 10 μM, 72 hours, WST-1, OD450 nm, read-out: cell viability (survival rate), AGS.
Setting [33] is: drug 10 μM, 72 hours, WST-1, OD450 nm, read-out: cell viability (survival rate), MCF7.
The mark [34] stands for this setting: drug 10 μM, 72 hours, WST-1, OD450 nm, read-out: cell viability (survival rate), HeLa.

Turning to `Cc1nnc(NS(=O)(=O)c2ccc(N)cc2)s1` [Sulfamethizole (Proklar), Sulfamethizole], the viability at 10 µM was 99.1% in experiment [1] (setting [13]); 86.4% in experiment [2]; 104% in [3] (setting [14]); 90.4% in experiment [4] (setting [15]); 95% in experiment [5] (setting [16]); 84.6% in experiment [6] (setting [17]). Moreover, the viability at 10 µM in [7] (setting [18]) was 99.2%; in experiment [8] (setting [19]) it was 114%; in experiment [9] (setting [20]), 86%; in experiment [10] (setting [21]) it was 86.6%; in experiment [11] (setting [22]) it was 100%; in experiment [12] (setting [23]), 105%. The “inhibition effect on different cancer cell lines” value in the experiment on cancer cell lines was “significant inhibition effect”.
Regarding `C[C@H](CCC(=O)O)[C@H]1CC[C@H]2[C@@H]3[C@H](O)C[C@@H]4C[C@H](O)CC[C@]4(C)[C@H]3CC[C@]12C` [Chenodeoxycholic acid], the viability at 10 µM in experiment [1] (setting [24]) was 64.2%; in [2], 82.7%; in experiment [3] (setting [25]), 118%; in experiment [4] (setting [26]) it was 96.3%; in [5] (setting [27]), 94.8%; in experiment [6] (setting [28]), 51.8%. The viability at 10 µM turned out to be 68.1% in experiment [7] (setting [29]); 88.8% in experiment [8] (setting [30]); 71.4% in experiment [9] (setting [31]); 68.9% in [10] (setting [32]); 74.5% in experiment [11] (setting [33]); 69.1% in experiment [12] (setting [34]). Moreover, the “inhibition effect on different cancer cell lines” value in the experiment with cancer cell lines is “significant inhibition effect”.
As to `CC(C)(C)c1nc(-c2cccc(NS(=O)(=O)c3c(F)cccc3F)c2F)c(-c2ccnc(N)n2)s1` [Dabrafenib (GSK2118436), Dabrafenib], the viability at 10 µM came to 42.1% in experiment [1] (setting [24]); 70.5% in [2]; 72.9% in experiment [3] (setting [25]); 134% in experiment [4] (setting [26]); 91.3% in experiment [5] (setting [27]); 98.7% in experiment [6] (setting [28]). Also, the viability at 10 µM in [7] (setting [29]) was determined as 73.6%; in [8] (setting [30]), 90.5%; in [9] (setting [31]), 100%; in experiment [10] (setting [32]), 90.1%; in [11] (setting [33]) it was 94.1%; in experiment [12] (setting [34]), 78.5%. The “inhibition effect on different cancer cell lines” value with cancer cell lines is “significant inhibition effect”.
For the compound `Clc1cccc(Cl)c1N=C1NCCN1` [Clonidine hydrochloride (Catapres), Clonidine hydrochloride], the viability at 10 µM in [1] (setting [13]) was 62.5%; in experiment [2], 72.1%; in [3] (setting [14]), 128%; in experiment [4] (setting [15]), 37.3%; in experiment [5] (setting [16]), 83.7%; in [6] (setting [17]) it was 48.8%. The viability at 10 µM in experiment [7] (setting [18]) amounted to 64.1%; in experiment [8] (setting [19]), 28.5%; in experiment [9] (setting [20]) it was 40.7%; in [10] (setting [21]) it was 36.4%; in experiment [11] (setting [22]), 68.8%; in experiment [12] (setting [23]), 72%. The “inhibition effect on different cancer cell lines” value with cancer cell lines is “significant inhibition effect”.
Take `O=C(O)c1cn(-c2ccc(F)cc2)c2cc(N3CCNCC3)c(F)cc2c1=O` [Sarafloxacin HCl]: the viability at 10 µM stood at 97.8% in [1] (setting [24]); 106% in experiment [2]; 112% in experiment [3] (setting [25]); 98.6% in [4] (setting [26]); 91.1% in experiment [5] (setting [27]); 75.3% in experiment [6] (setting [28]). Moreover, the viability at 10 µM in experiment [7] (setting [29]) amounted to 58.9%; in experiment [8] (setting [30]) it was 122%; in experiment [9] (setting [31]), 80.9%; in experiment [10] (setting [32]), 88%; in experiment [11] (setting [33]) it was 107%; in experiment [12] (setting [34]), 81%. In addition, the “inhibition effect on different cancer cell lines” value with cancer cell lines was “significant inhibition effect”.
Take `Nc1nc(=O)n([C@@H]2CS[C@H](CO)O2)cc1F` [Emtricitabine (Emtriva), Emtricitabine]: the viability at 10 µM in [1] (setting [13]) is 84%; in experiment [2] it was 82.6%; in experiment [3] (setting [14]), 119%; in experiment [4] (setting [15]), 86.9%; in experiment [5] (setting [16]), 110%; in experiment [6] (setting [17]), 62.8%. Also, the viability at 10 µM in [7] (setting [18]) was determined as 61%; in experiment [8] (setting [19]) it was 85.3%; in experiment [9] (setting [20]), 77.1%; in experiment [10] (setting [21]), 48%; in [11] (setting [22]) it was 74%; in experiment [12] (setting [23]) it was 79.6%. In the experiment with cancer cell lines, the “inhibition effect on different cancer cell lines” value is “significant inhibition effect”.
Turning to `CC[C@H]1OC(=O)C[C@@H](O)[C@H](C)[C@@H](O[C@@H]2O[C@H](C)[C@@H](O)[C@H](N(C)C)[C@H]2O)[C@@H](CCN2C[C@H](C)C[C@H](C)C2)C[C@@H](C)C(=O)/C=C/C(C)=C/[C@@H]1CO[C@@H]1O[C@H](C)[C@@H](O)[C@@H](OC)[C@H]1OC` [Tilmicosin], the viability at 10 µM in experiment [1] (setting [24]) is 54.7%; in experiment [2] it was 83.8%; in [3] (setting [25]) it was 75%; in experiment [4] (setting [26]) it was 53.5%; in experiment [5] (setting [27]) it was 92.1%; in experiment [6] (setting [28]) it was 52.1%. The viability at 10 µM in [7] (setting [29]) worked out at 72.7%; in experiment [8] (setting [30]) it was 56.5%; in [9] (setting [31]), 81.5%; in experiment [10] (setting [32]), 102%; in experiment [11] (setting [33]), 39.1%; in experiment [12] (setting [34]), 67%. In the experiment on cancer cell lines, the “inhibition effect on different cancer cell lines” value is “significant inhibition effect”.
Turning to `C[C@@H](O)[C@H]1C(=O)N2C(C(=O)[O-])=C(SC3Cn4cnc[n+]4C3)[C@H](C)[C@H]12` (stereo partly drawn) [Biapenem], the viability at 10 µM in [1] (setting [13]) came out at 60.4%; in experiment [2] it was 88.7%; in experiment [3] (setting [14]), 95.5%; in experiment [4] (setting [15]) it was 90.1%; in experiment [5] (setting [16]), 66.4%; in experiment [6] (setting [17]), 81.5%. The viability at 10 µM in [7] (setting [18]) came out at 42.2%; in [8] (setting [19]), 117%; in experiment [9] (setting [20]), 80.3%; in [10] (setting [21]), 75.1%; in experiment [11] (setting [22]), 136%; in experiment [12] (setting [23]), 54%. In addition, the “inhibition effect on different cancer cell lines” value with cancer cell lines was “significant inhibition effect”.
On to `COc1c(N2CCNC(C)C2)c(F)cc2c(=O)c(C(=O)O)cn(C3CC3)c12` (stereo not drawn) [Gatifloxacin], for which the viability at 10 µM was 63.3% in experiment [1] (setting [24]); 98.3% in [2]; 100% in experiment [3] (setting [25]); 96% in experiment [4] (setting [26]); 65.6% in [5] (setting [27]); 84.2% in experiment [6] (setting [28]). In addition, the viability at 10 µM was 47.2% in experiment [7] (setting [29]); 65% in experiment [8] (setting [30]); 82.2% in [9] (setting [31]); 71.4% in [10] (setting [32]); 130% in [11] (setting [33]); 84.1% in experiment [12] (setting [34]). The “inhibition effect on different cancer cell lines” value in the experiment with cancer cell lines is given as “significant inhibition effect”.
